Consider one compound from publication PMC6863825, “Modulating multi-functional ERK complexes by covalent targeting of a recruitment site in vivo” (Nature Communications, 2019).

The experiment addresses T1, ERK2 (Rattus norvegicus, UniProt P63086).
T1 construct: gene Mapk1; full-length ERK2
Description: fluorescence anisotropy displacement of FITC D-site peptide; also protein NMR, intact MS, kinact/Ki. It counts as binding. In general terms: Fluorescence polarisation rises when a labelled molecule tumbles more slowly, as on binding a larger partner.

Each structure is given as a SMILES string.

T1 sequence (P63086 2-358): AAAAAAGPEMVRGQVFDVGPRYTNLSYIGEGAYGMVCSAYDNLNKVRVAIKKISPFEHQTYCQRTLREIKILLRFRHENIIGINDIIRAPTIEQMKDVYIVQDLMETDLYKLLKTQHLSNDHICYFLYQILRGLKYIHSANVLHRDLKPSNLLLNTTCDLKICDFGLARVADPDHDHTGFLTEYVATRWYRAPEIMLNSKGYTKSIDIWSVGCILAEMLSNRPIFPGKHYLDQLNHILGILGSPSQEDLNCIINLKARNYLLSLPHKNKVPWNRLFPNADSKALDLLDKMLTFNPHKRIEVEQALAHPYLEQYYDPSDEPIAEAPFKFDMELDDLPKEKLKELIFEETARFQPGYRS

Usually Ki stands for a dissociation constant, usually derived from enzyme kinetics or from competition with a known ligand. High values mean a looser hold on the target, low ones a stronger hold on the target. Take `O=[N+]([O-])c1cnc(Sc2nnc(O)n2-c2ccc3c(c2)OCCO3)s1` [compound 1, BI-78D3]: the affinity corresponds to a Ki of 800 ± 200 nM.
